Usually IC50 stands for the midpoint of a concentration-inhibition curve.

One test deals with Toxoplasma gondii. Description: MMV: A total of 100ul of inoculum was added to each well (parasite/cell ratio, ~10:1; final volume, 200 ul). Six hours after inoculation, nonadherent parasites were removed, and 100 ul of complete DMEM (1% penicillin-streptomycin, 3% FBS) supplemented with inhibitors at different concentrations (2-fold serial dilutions starting from 30 uM) was added to all except the negative-control wells. Positive controls, consisting of pyrimethamine (PYR) and sulfadiazine (SDZ) (20-mg/ml stocks in DMSO), were tested at a 2mg/ml final concentration. Each test was performed in triplicate. The class given is functional, organism-based. The settings on record: 6 h.

The test system of another test is Entamoeba histolytica. Description: MMV: Primary screening was performed with each compound at a 30 uM final concentration and in triplicate in sealed 96-well polystyrene microtiter plates. Parasite inocula (100 ul) comprising 20000 parasites/ml were added to each well and grown at 37 degrees C in a humidified atmosphere of 5% CO2 for 72 h. Positive controls consisted of metronidazole at 1 mg/ml. The growth of E. histolytica trophozoites in each well was determined microscopically by measuring the diameters of the confluent cells in drug-containing wells relative to those in the nega- tive-control wells. It is filed as functional, organism-based.

Structures are written as SMILES.

For `COc1ccc(Nc2nc(N/N=C/c3ccc(O)cc3)nc(Nc3ccc([N+](=O)[O-])cc3)n2)cc1`, the IC50 in the test on Toxoplasma gondii and in the test with Entamoeba histolytica was more than 30 µM in each case.
For `O=C(NNc1cc(N2CCCC2)nc(N2CCCC2)n1)c1ccccc1`, the IC50 in the test with Toxoplasma gondii and in the test with Entamoeba histolytica was more than 30 µM in each case.
As for `COC(=O)c1ccc(Cl)c2c1C1C=CCC1C(c1cccc3ccccc13)N2` (stereo not drawn), the half-maximal inhibitory concentration (IC50) with Toxoplasma gondii and in the test with Entamoeba histolytica was more than 30 µM in each case.
As to `O=C(CCc1ccccc1)c1ccccc1OCC(O)CN1CCCCC1` (stereo not drawn), the IC50 in the test with Toxoplasma gondii and in the test with Entamoeba histolytica was more than 30 µM each time.
With `Cn1c(C(=O)c2cccc3ccccc23)nc2ccccc21`, the IC50 in the test with Toxoplasma gondii and in the test on Entamoeba histolytica was more than 30 µM throughout.
As to `OCCNc1nc(Nc2ccc(Cl)c(Cl)c2)nc2ccccc12`, the IC50 with Toxoplasma gondii and with Entamoeba histolytica was more than 30 µM throughout.
Turning to `Nc1ccc(-c2nc3cc(Oc4ccc(Oc5ccc6[nH]c(-c7ccc(N)cc7)nc6c5)cc4)ccc3[nH]2)cc1`, the IC50 with Toxoplasma gondii and in the test on Entamoeba histolytica was more than 30 µM in each case.
In the case of `Cc1cc(N(C)C)nc(Nc2ccc(NC(=O)Nc3ccccc3)cc2)n1`, the IC50 with Toxoplasma gondii and with Entamoeba histolytica was more than 30 µM in each case.
On to `Cc1ccc(Nc2nc(N)c3ccccc3n2)cc1Cl`, for which the IC50 with Toxoplasma gondii and with Entamoeba histolytica was more than 30 µM each time.
Turning to `CCc1ccc(CNCC(O)c2ccccc2)cc1` (stereo not drawn), the IC50 with Toxoplasma gondii and with Entamoeba histolytica was more than 30 µM in each case.
In the case of `CCCn1c(=N)c(C(=O)NC2CCCCC2)cc2c(=O)n3cccc(C)c3nc21`, the IC50 with Toxoplasma gondii and in the test on Entamoeba histolytica was more than 30 µM throughout.
Regarding `Nc1ccn([C@@H]2O[C@H](CO)[C@@H](O)[C@H]2O)c(=O)n1` [CYTIDINE], the IC50 in the test with Toxoplasma gondii and with Entamoeba histolytica was more than 30 µM throughout.
Take `O=C(Nc1cccc(C2=NCCN2)c1)Nc1cccc(C2=NCCN2)c1` [IMIDOCARB]: the IC50 in the test with Toxoplasma gondii and in the test on Entamoeba histolytica was more than 30 µM each time.
For the molecule `CN(C)c1ccc(C(O)(c2ccc(N(C)C)cc2)c2ccc(N(C)C)cc2)cc1` [METHYLROSANILINE], the IC50 in the test on Toxoplasma gondii and in the test on Entamoeba histolytica was more than 30 µM each time.

Values taken from ChEMBL document CHEMBL3301448, “MMV Malaria Box screening against Toxoplasma gondii and Entamoeba histolytica”.
